Assay: xn = mol fraction of the nth substance listed
Conditions: 101 kPa, Liquid, Vibrating tube method

CC(O)CN (stereo not drawn) [1-amino-2-propanol] + O
mass density [kg/m3]
Conditions | 318.15 K | 323.15 K | 328.15 K | 333.15 K | 338.15 K | 343.15 K | 348.15 K | 353.15 K
x2 = 0.0438 | – | 938.15 | 934 | 929.82 | 925.59 | 921.33 | 917.02 | 912.66
x2 = 0.0801 | – | 939.79 | 935.65 | 931.47 | 927.26 | 923 | 918.7 | 914.34
x2 = 0.1269 | – | 942.24 | 938.11 | 933.95 | 929.74 | 925.48 | 921.19 | 916.84
x2 = 0.1584 | – | 943.75 | 939.62 | 935.46 | 931.25 | 927 | 922.71 | 918.36
x2 = 0.2003 | – | 945.98 | 941.87 | 937.7 | 933.51 | 929.26 | 924.97 | 920.63
x2 = 0.2999 | – | 951.92 | 947.82 | 943.67 | 939.48 | 935.23 | 930.93 | 926.59
x2 = 0.3498 | – | 955.13 | 951.03 | 946.88 | 942.69 | 938.45 | 934.15 | 929.81
x2 = 0.3999 | – | 958.3 | 954.21 | 950.06 | 945.87 | 941.62 | 937.32 | 932.97
x2 = 0.4499 | – | 961.75 | 957.65 | 953.5 | 949.31 | 945.06 | 940.76 | 936.4
x2 = 0.4968 | – | 965.17 | 961.07 | 956.92 | 952.72 | 948.47 | 944.16 | 939.8
x2 = 0.5122 | 970.43 | 966.38 | 962.28 | 958.13 | 953.93 | 949.68 | 945.37 | 941.01
x2 = 0.5501 | 973.11 | 969.05 | 964.95 | 960.8 | 956.6 | 952.34 | 948.03 | 943.66
x2 = 0.6001 | 977.04 | 972.99 | 968.89 | 964.74 | 960.54 | 956.29 | 951.98 | 947.61
x2 = 0.6501 | 980.76 | 976.72 | 972.63 | 968.49 | 964.3 | 960.06 | 955.76 | 951.4
x2 = 0.7 | 984.34 | 980.34 | 976.28 | 972.17 | 968.01 | 963.8 | 959.53 | 955.2
x2 = 0.7501 | 987.6 | 983.67 | 979.68 | 975.64 | 971.55 | 967.4 | 963.19 | 958.92
x2 = 0.8 | 990.02 | 986.23 | 982.39 | 978.48 | 974.51 | 970.48 | 966.38 | 962.22
x2 = 0.84 | 991.29 | 987.71 | 984.06 | 980.33 | 976.53 | 972.66 | 968.72 | 964.71
x2 = 0.88 | 991.5 | 988.22 | 984.85 | 981.39 | 977.84 | 974.2 | 970.47 | 966.66
x2 = 0.92 | 990.94 | 988.05 | 985.04 | 981.92 | 978.68 | 975.33 | 971.88 | 968.33
x2 = 0.96 | 990.01 | 987.53 | 984.91 | 982.14 | 979.24 | 976.22 | 973.07 | 969.81

— the NIST ThermoML archive (doi:10.1016/j.tca.2005.10.007)
